Experimental data reported in article PMC6934184, “Selective DNA-PKcs inhibition extends the therapeutic index of localized radiotherapy and chemotherapy” (The Journal of Clinical Investigation, 2019).

Biological target: T1, PLK3 (Homo sapiens, UniProt Q9H4B4)
T1 construct: purchased Thermo Fisher Scientific (Life Technologies) SelectScreen
Assay: SelectScreen Z'LYTE
Assay type: biochemical
Method in brief: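 SelectScreen broad panel; activity (Z'LYTE, Adapta) plus binding formats. ATP: Km app for CSF1R Z'LYTE; 10 for CAMK1 Adapta. Readout = % per kinase.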

T1 sequence (Q9H4B4 whole entry): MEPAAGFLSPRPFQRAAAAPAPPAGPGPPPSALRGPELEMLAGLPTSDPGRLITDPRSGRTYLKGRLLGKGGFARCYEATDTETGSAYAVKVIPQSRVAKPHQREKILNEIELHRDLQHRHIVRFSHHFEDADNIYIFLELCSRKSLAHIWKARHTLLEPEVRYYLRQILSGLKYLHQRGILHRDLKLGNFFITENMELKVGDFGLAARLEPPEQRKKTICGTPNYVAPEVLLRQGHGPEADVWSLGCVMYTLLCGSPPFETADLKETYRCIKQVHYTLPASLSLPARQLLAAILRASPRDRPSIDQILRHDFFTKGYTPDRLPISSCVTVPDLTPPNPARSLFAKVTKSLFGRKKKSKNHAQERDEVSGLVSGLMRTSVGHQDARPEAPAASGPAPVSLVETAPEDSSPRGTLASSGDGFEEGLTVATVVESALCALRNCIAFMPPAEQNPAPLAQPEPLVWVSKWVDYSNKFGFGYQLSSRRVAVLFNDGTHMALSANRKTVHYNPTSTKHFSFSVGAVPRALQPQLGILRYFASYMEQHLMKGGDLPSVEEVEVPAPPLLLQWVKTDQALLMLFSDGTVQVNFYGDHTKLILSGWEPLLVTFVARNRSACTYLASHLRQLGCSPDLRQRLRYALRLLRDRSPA

With `CN(C(=O)CN1CCOCC1)c1ccc2sc3c(-c4cccc5c(=O)cc(N6CC7CCC(C6)O7)oc45)cccc3c2c1` [NU5455] the inhibition at 1 µM was -18.2%.
